How the values were obtained:
IDO1 [1] = target: T1, IDO1 (Homo sapiens, UniProt P14902); test: IDO1 Human Whole blood Assay; assay type: cell-based; design: Human whole blood was drawn in sodium heparin coated tubes from healthy internal donors; from tissue; host or cells: human whole blood from healthy donors, stimulated with LPS and IFNγ; conditions: LPS and IFNγ stimulated, 18 h, read-out: Human Whole Blood Potency, IC50
Method: IDO1Human Whole blood Assay
Compounds to be tested were serially diluted in ten 3-fold steps in DMSO starting from 10 mM. 3 μL of compound dilutions or DMSO alone were then dispensed from the dilution plate into a polypropylene 96-well assay plate containing 97 μL of RPMI medium using an Echo 555 acoustic liquid handler (Labcyte). LPS and IFNγ was prepared in RPMI medium to a 10× of final conc. (1000 ng/mL), final concentration is 100 ng/mL.
Human whole blood was drawn in sodium heparin coated tubes from healthy internal donors. 240 μL of blood was transferred to each of the wells of a v-bottom 96 well plate. 30 μL of compound was transferred from intermediate dilution plate, and incubated for 15 min. 30 μL from stimulants was then transferred to blood and mixed thoroughly. Plate was covered with breathable membrane and incubated at 37° C. for overnight (18 h).
On day 2, isotope labeled standard solutions of kynurenine and tryptophan was made in water at 10× concentration and 30 μL was added to the blood at 3 μM final concentration. The assay plates were centrifuged at 300×G for 10 min with no brake to separate plasma from red blood cells. 60 μL of plasma samples was removed without disturbing red blood cells. Plasma was diluted with RPMI in 1:1 ratio and proteins were precipitated out with two volumes of Acetonitrile. The plates were centrifuged at 4000×G for 60 min. 20 μL of supernatant was carefully transferred to a 384 well plate containing 40 μL of 0.1% formic acid in water and analyzed by LC/MS/MS.
LC/MS/MS analyses were performed using Thermo Fisher's LX4-TSQ Quantum Ultra system. This system consists of four Agilent binary high-performance liquid chromatography (HPLC) pumps and a TSQ Quantum Ultra triple quadrupole MS/MS instrument. For each sample, 5 μL were injected onto an Atlantis T3 column (2.1 mm×150 mm, 3 μm particle size) from Waters. The mobile phase gradient pumped at 0.8 mL/min was used to elute the analytes from the column at 25° C. The elution started at 0% B increasing linearly to 25% B at 6.5 min, holding at 25% for 1 min, re-equilibrating to 10 min. Mobile phase A consisted of 0.1% formic acid in water. Mobile phase B consisted of 0.1% of formic acid in acetonitrile. Data were acquired in positive mode using a HESI interface. The operational parameters for the TSQ Quantum Ultra instrument were a spray voltage of 4000 V, capillary temperature of 380° C., vaporizer temperature 400° C., shealth gas 60 arbitrary units, Aux gas 20 arbitrary units, tube lens 85 and collision gas 1.2 mTorr. SRM chromatograms of kynurenine (Q1: 209.2>Q3:94.0) and internal standard (Q1: 215.3>Q3:98.2) were collected for 90 sec. The peak area was integrated by Xcalibur Quan software. The ratios between the kynurenine generated in the reaction and 2D6-Kynurenine spiked-in internal standard were used to generate percentage inhibition and IC50 values. Compounds were titrated and IC50's were calculated by 4 parameter sigmoidal curve fitting formula.

IDO1 [2] = target: T1, IDO1; test: IDO1 Cellular Assay in HeLa Cells Stimulated with IFNγ; assay type: cell-based; conditions: read-out: HeLa Cell Potency, IC50

T1 sequence (P14902 whole entry): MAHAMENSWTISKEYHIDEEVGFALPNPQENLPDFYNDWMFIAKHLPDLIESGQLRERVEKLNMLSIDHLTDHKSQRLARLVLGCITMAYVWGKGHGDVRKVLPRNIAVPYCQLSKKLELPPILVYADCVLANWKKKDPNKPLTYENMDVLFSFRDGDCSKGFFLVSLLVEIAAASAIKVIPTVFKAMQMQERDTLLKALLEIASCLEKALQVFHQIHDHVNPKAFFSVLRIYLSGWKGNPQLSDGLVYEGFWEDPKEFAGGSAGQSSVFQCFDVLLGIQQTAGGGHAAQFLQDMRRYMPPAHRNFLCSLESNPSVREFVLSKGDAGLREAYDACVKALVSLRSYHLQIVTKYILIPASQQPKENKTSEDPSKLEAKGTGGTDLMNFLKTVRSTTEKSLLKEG

SMILES | IC50 (IDO1 [1]) [nM] | IC50 (IDO1 [2]) [nM]
Cc1c(F)ccc(N2CCN(C(=O)Cn3nc(C(=O)N4CC[C@@H](O)[C@@H](F)C4)c4c3CCCC4)CC2)c1C [Example 462, 1-(4-(4-fluoro-2,3-dimethylphenyl)piperazin-1-yl)-2-(3-((3S,4R)-3-fluoro-4-hydroxy-piperidine-1-carbonyl)-4,5,6,7-tetrahydro-1H-indazol-1-yl)ethanone,] | 103 | 1.32
Cc1c(Cl)cccc1N1CCN(C(=O)Cn2nc(C(=O)N3CCC(O)CC3)c3c2CCC(F)(F)C3)CC1 [Example 379, 1-(4-(3-chloro-2-methylphenyl)piperazin-1-yl)-2-(5,5-difluoro-3-(4-hydroxypiperidine-1-carbonyl)-4,5,6,7-tetrahydro-1H-indazol-1-yl)ethan-1-one] | 172 | 3.25
Cc1cccc(N2CCN(C(=O)Cn3nc(C(=O)N4CCC(CO)CC4)c4c3CCC4)CC2)c1C [Example 101, 1-[4-(2,3-dimethylphenyl)piperazin-1-yl]-2-{3-[4-(hydroxymethyl)piperidine-1-carbonyl]-5,6-dihydrocyclopenta[c]pyrazol-1(4H)-yl}ethan-1-one] | 711 | 6.12
Cc1cccc(N2CCN(C(=O)Cn3nc(C(=O)N4CCC(O)CC4)c4c3CC(C(F)F)C4)CC2)c1C (single isomer, unassigned) [Example 10, 2-[5-(difluoromethyl)-3-(4-hydroxypiperidine-1-carbonyl)-5,6-dihydro-5H-cyclopenta[c]pyrazol-1-yl]-1-[4-(2,3-dimethylphenyl)piperazin-1-yl]ethanone] | 233 | 1.74
Cc1cccc(N2CCN(C(=O)Cn3nc(C(=O)N4CC[C@H](O)[C@H](F)C4)c4c3CCCC4)CC2)c1C [Example 475, 1-(4-(2,3-dimethylphenyl)piperazin-1-yl)-2-(3-((3R,4S)-3-fluoro-4-hydroxypiperidine-1-carbonyl)-4,5,6,7-tetrahydro-1H-indazol-1-yl)ethanone] | 52 | 4.26
CC(=O)NC1CCN(C(=O)c2nn(CC(=O)N3CCN(c4cccc(Cl)c4C)CC3)c3c2CC(F)(F)CC3)CC1 [Example 380, N-(1-(1-(2-(4-(3-chloro-2-methylphenyl)piperazin-1-yl)-2-oxoethyl)-5,5-difluoro-4,5,6,7-tetrahydro-1H-indazole-3-carbonyl)piperidin-4-yl)acetamide] | 94 | 1.67
Cc1cccc(N2CCN(C(=O)Cn3nc(C(=O)N4CC[C@@H](O)[C@@H](F)C4)c4c3CCCC4)CC2)c1C [Example 476, 1-(4-(2,3-dimethylphenyl)piperazin-1-yl)-2-(3-((3S,4R)-3-fluoro-4-hydroxypiperidine-1-carbonyl)-4,5,6,7-tetrahydro-1H-indazol-1-yl)ethanone] | 164 | 5.45
Cc1cccc(N2CCN(C(=O)Cn3nc(C(=O)N4CC[C@H](O)C(F)(F)C4)c4c3CCC4)CC2)c1C (single isomer, unassigned) [Example 201, 2-[3-[(4S or 4R)-3,3-difluoro-4-hydroxy-piperidine-1-carbonyl]-5,6-dihydro-4H-cyclopenta[c]pyrazol-1-yl]-1-[4-(2,3-dimethylphenyl)piperazin-1-yl]ethanone] | 1800 | 3.67
Cc1cccc(N2CCN(C(=O)Cn3nc(C(=O)N4CCC(C)(CO)CC4)c4c3CCC4)CC2)c1C [Example 161, 1-[4-(2,3-dimethylphenyl)piperazin-1-yl]-2-{3-[4-(hydroxymethyl)-4-methylpiperidine-1-carbonyl]-5,6-dihydrocyclopenta[c]pyrazol-1(4H)-yl}ethan-1-one] | 113 | 2.42
Cc1cccc(N2CCN(C(=O)Cn3nc(C(=O)N4CCC(O)CC4)c4c3C[C@H]3C[C@@H]43)[C@H](C)C2)c1C [Example 335, 1-[(2R)-4-(2,3-dimethylphenyl)-2-methylpiperazin-1-yl]-2-[(3bR,4aR)-3-(4-hydroxypiperidine-1-carbonyl)-3b,4,4a,5-tetrahydro-1H-cyclopropa[3,4]cyclopenta[1,2-c]pyrazol-1-yl]ethan-1-one] | 587 | 2.75

The remaining compounds from weak to strong by IC50 (IDO1 [1]), led by results:

IC50 (IDO1 [1]) [nM] | IC50 (IDO1 [2]) [nM] | SMILES
4160 | 6.86 | Cc1cccc(N2CCN(C(=O)Cn3nc(C(=O)N4CCC(O)C(F)C4)c4c3CCC4)C3(CC3)C2)c1C (single isomer, unassigned) [Example 328, 1-[7-(2,3-dimethylphenyl)-4,7-diazaspiro[2.5]octan-4-yl]-2-[3-(3-fluoro-4-hydroxy-piperidine-1-carbonyl)-5,6-dihydro-4H-cyclopenta[c]pyrazol-1-yl]ethanone]
2470 | 31.7 | Cc1cccc(N2CCN(C(=O)Cn3nc(C(=O)N4CC[C@@H](O)[C@@H](F)C4)c4c3CC(F)C4)CC2)c1C (single isomer, unassigned) [Example 418]
1800 | 0.69 | Cc1c(F)ccc(N2CCN(C(=O)Cn3nc(C(=O)N4CCC(O)(CO)CC4)c4c3C[C@H]3C[C@@H]43)C3(CC3)C2)c1C [Example 323, 1-[7-(4-fluoro-2,3-dimethylphenyl)-4,7-diazaspiro[2.5]octan-4-yl]-2-{(3bR,4aR)-3-[4-hydroxy-4-(hydroxymethyl)piperidine-1-carbonyl]-3b,4,4a,5-tetrahydro-1H-cyclopropa[3,4]cyclopenta[1,2-c]pyrazol-1-yl}ethan-1-one]
1220 | 11.3 | Cc1cccc(N2CCN(C(=O)Cn3nc(C(=O)N4CCC5(CO)CC4C5)c4c3CCC4)CC2)c1C [Example 297, 1-[4-(2,3-dimethylphenyl)piperazin-1-yl]-2-{3-[5-(hydroxymethyl)-2-azabicyclo[3.1.1]heptane-2-carbonyl]-5,6-dihydrocyclopenta[c]pyrazol-1(4H)-yl}ethan-1-one]
441 | 5.88 | Cc1cccc(N2CCN(C(=O)Cn3nc(C(=O)N4CCN(C5COC5)CC4)c4c3CCC4)CC2)c1C [Example 168, 1-[4-(2,3-dimethylphenyl)piperazin-1-yl]-2-{3-[4-(oxetan-3-yl)piperazine-1-carbonyl]-5,6-dihydrocyclopenta[c]pyrazol-1(4H)-yl}ethan-1-one]
365 | 3.54 | Cc1c(Cl)cccc1N1CCN(C(=O)Cn2nc(C(=O)N3CCC(O)CC3)c3c2C(F)(F)[C@H]2C[C@@H]32)CC1 [Example 448, 1-(4-(3-chloro-2-methylphenyl)piperazin-1-yl)-2-((3bR,4aS)-5,5-difluoro-3-(4-hydroxypiperidine-1-carbonyl)-3b,4,4a,5-tetrahydro-1H-cyclopropa[3,4]cyclopenta[1,2-c]pyrazol-1-yl)ethanone]
339 | 3.1 | Cc1cccc(N2CCN(C(=O)Cn3nc(C(=O)N4C[C@@H](C)N(C)[C@@H](C)C4)c4c3C[C@H]3C[C@@H]43)CC2)c1C [Example 235, 1-[4-(2,3-dimethylphenyl)piperazin-1-yl]-2-{(3bR,4aR)-3-[(3R,5S)-3,4,5-trimethylpiperazine-1-carbonyl]-3b,4,4a,5-tetrahydro-1H-cyclopropa[3,4]cyclopenta[1,2-c]pyrazol-1-yl}ethan-1-one]
307 | 1.75 | Cc1cccc(N2CCN(C(=O)Cn3nc(C(=O)N4CC[C@@H](O)[C@@H](F)C4)c4c3CCCC4)CC2)c1Cl [Example 457, 1-(4-(2-chloro-3-methylphenyl)piperazin-1-yl)-2-(3-((3S,4R)-3-fluoro-4-hydroxy-piperidine-1-carbonyl)-4,5,6,7-tetrahydro-1H-indazol-1-yl)ethanone]
90 | 8.74 | Cc1cccc(N2CCN(C(=O)Cn3nc(C(=O)N4CCN(C(=O)CO)CC4)c4c3CCCC4)CC2)c1C [Example 480, 1-(4-(2,3-dimethylphenyl)piperazin-1-yl)-2-(3-(4-(2-hydroxyacetyl)piperazin-1-carbonyl)-4,5,6,7-tetrahydro-1H-indazol-1-yl)ethanone]

From patent publication US12264134B2 (Merck Sharp & Dohme LLC, priority 2018, dated 2025)
